Measured values as given in patent US5998414A, “Troponyl piperazines as dopamine D4 receptor ligands” (priority 1997, dated 1999).

Assays:
[1] = molecular target: human D2 receptor (short isoform) (Homo sapiens, UniProt P14416); assay: D2 receptor displacement binding assay (3H-spiperone, membrane homogenate of stably transfected GH4 C1 cells), used for D2/D4 selectivity; settings: ratio D2/D4, 3H-spiperone displacement
Procedure: (§1) The potency of the test compound to reduce ^3 H-spiperone binding directly correlated to its binding affinity for the receptor.
GH4 C1 (rat pituitary) cells stably transfected with the human D2 receptor (short isoform) were grown in HAM'S F10 media in NUNC cell factories for 5 days. 100 μM ZnSO4 was added to the cells (the D2 promoter being zinc inducible). After 16 hours, fresh media was added to allow the cells to recover for 24 hours. The cells were harvested using versine and then centrifuged in a Sorval centrifuge for 10 minutes, at 5000 rpm (GS3 rotor). Pellets were quickly frozen in liquid nitrogen and stored at -80° C. until used in the binding assays. When used in the assay, cells were thawed on ice for 20 minutes. […] The receptor protein concentration was determined using the Pierce BCA assay.
(§2) Total Spiperone Binding Assay
(§3) The plates were vortexed and incubated at room temperature for 90 minutes. The binding reaction was stopped by filtering using a Packard Harvester. The samples were filtered under vacuum over glass fibre filter plates (Whatman GF/B) presoaked for 2 hours in 0.3% polyethylenimine (PEI) in 50 mM Tris buffer (pH 7.4). The filters were then washed 6 times with 7 ml ice cold 50 mM Tris buffer (pH 7.4). The filter plates were dried overnight and 35 μl of Microscint-O (Packard) was added. The plates were sealed and counted in the Packard Top Count (3 minutes per well).
Non-specific Binding Assay for D2
This assay employed the same procedures as the non-specific binding assay for D4 with the exception that 2 μM (final conc.) of (-) sulpiride (Research Chemicals Inc.) was used in place of dopamine.
(§4) Displacement Binding Assay
(§5) The incubation was started by the addition, in 96-well polypropylene plates (1 mL per well), of 100 μl (50 μg protein) membrane homogenate to a solution of 200 μl incubation buffer, 100 μl ([…].) ^3 H-spiperone (90 Ci/mmol, Amersham, diluted in borosilicate glass vial) and 100 μl of test compound that was prepared from 1 mM stock dissolved in DMSO and stored at -20° C. in polypropylene cryogenic storage vials until dilution in incubation buffer in 96-well polypropylene plates. The plates were vortexed and incubated at room temperature for 90 minutes at which time the binding reaction was stopped by filtering. The filters were washed and counted using the same procedure as in the total binding assay described above to give the displacement binding value (BD).
(§6) IC50 was determined from an inhibition response curve, logit-log plot of %B/B0 vs concentration of test compound.
(§7) Ki was calculated by the Cheng and Prustoff transformation: […]
(§8) where [L] is the concentration of ^3 H-spiperone used in the assay and KD is the dissociation constant of ^3 H-spiperone determined independently under the same binding conditions.

[2] = molecular target: T1, human D4.2 receptors (Homo sapiens, UniProt P21917, DEL265-296); assay: Functional antagonist assay: reversal of dopamine inhibition of forskolin-stimulated adenyl cyclase (cAMP) in CHO Pro 5 cells; assay type: cell-based; settings: dopamine and forskolin both 10 μM, read-out: % reversal of dopamine effect; for inhibition at 1 µM: 1 μM test compound; for inhibition at 10 µM: 10 μM test compound
T1 construct: expressed in transfected cells; host or cells: CHO Pro 5 cells
T1 sequence (P21917 with tags, fused parts or gaps DEL265-296): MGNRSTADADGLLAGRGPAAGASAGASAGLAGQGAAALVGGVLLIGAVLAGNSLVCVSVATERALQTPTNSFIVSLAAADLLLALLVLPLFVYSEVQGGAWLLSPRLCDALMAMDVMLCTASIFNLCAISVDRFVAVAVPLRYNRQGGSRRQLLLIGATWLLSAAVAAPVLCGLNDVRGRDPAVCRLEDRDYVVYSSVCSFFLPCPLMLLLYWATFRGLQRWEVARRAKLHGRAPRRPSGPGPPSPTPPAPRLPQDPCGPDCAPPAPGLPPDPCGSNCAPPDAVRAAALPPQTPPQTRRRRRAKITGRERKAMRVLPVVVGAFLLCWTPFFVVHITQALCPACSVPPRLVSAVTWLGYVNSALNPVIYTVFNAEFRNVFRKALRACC
Procedure: The D4 receptor responds to dopamine and other agonists by reducing adenyl cyclase mediated production of cyclic AMP. Particular test compounds were assayed for their ability to reverse dopamine inhibition of adenyl cyclase by the following procedure. Forskolin was used to elevate the basal adenyl cyclase activity.
CHO Pro 5 cells stably expressing human D4.2 receptors were plated in 6 well plates in DMEM (Dulbecco's Modified Eagle Medium)/F12(Nutrient Mixture F12 (Ham)) media with 10% FCS (fetal calf serum) and G418 (Geneticen Disulfate), and incubated at 37° C. in a CO2 incubator. The cells were allowed to grow to about 70% confluence before use in the assay.
The culture media of each well was removed, and the wells were washed once with serum free media (SFM) (DMEM/F12) media. Then 2 mL of fresh SFM+IBMX media (SFM with 0.5 mM IBMX, 3-isobutyl-1-methylxanthine, 0.1% ascorbic acid and 10 μM pargyline) was added to each well and then incubated at 37° C. for 10 minutes in a CO2 incubator. […] Basal adenyl cyclase activity was determined from wells with only SFM+IBMX media added.
The cells were then incubated at 37° C. for 30 minutes in a CO2 incubator. Following incubation the media was removed from each well and then washed once with 1 mL of PBS (phosphate buffered saline). […] The cells from each well were then scraped and transferred into individual Eppendorf tubes. The tubes were centrifuged for 5 min at 4° C., and the supernatants were transferred to new Eppendorf tubes.
Total inhibition (I0) of forskolin-stimulated adenyl cyclase activity by dopamine was determined as the difference in concentration of cAMP in the forskolin-treated cells (Cf) and dopamine-forskolin treated cells (Cd).
Net inhibition (I) of forskolin-stimulated adenyl cyclase activity by dopamine in the presence of an antagonist was determined as the difference in concentration of cAMP in the forskolin-treated cells (Cf) and test compound, dopamine and forskolin treated cells (C).
The ability of the test compounds to reverse the dopamine inhibition (% reversal, % R) was determined by the formula: […]

[3] = molecular target: T2, human D4 receptor (D4.2 sub-type) (Homo sapiens, UniProt P21917, DEL265-296); assay: D4 receptor displacement binding assay (3H-spiperone, membrane homogenate of stably transfected HEK 298 cells); settings: 3H-spiperone displacement, human D4.2, HEK cells; Cheng and Prustoff transformation of IC50; read-out: D4 affinity Ki
T2 construct: expressed in transfected cells; host or cells: HEK 298 (human embryonic kidney) cells (so in the source); membrane homogenate
T2 sequence (P21917 with tags, fused parts or gaps DEL265-296): T1 sequence (P21917 with tags, fused parts or gaps DEL265-296)
Procedure: as §1
The cells were then centrifuged in a Sorval centrifuge for 10 min, 5000 rpm (GS3 rotor) and the pellets quickly frozen in liquid nitrogen and stored at -80° C. until used in binding assay. When used in the assay, cells were thawed on ice for 20 min and then 10 ml of incubation buffer (50 mM Tris, 1 mM EDTA, 4 mM MgCl2, 5 mM KCl, 1.5 mM CaCl2, 120 mM NaCl, pH 7.4) was added. […] Concentration of receptor protein was determined using the Pierce BCA assay.
as §2, §3
Non-specific Binding Assay for D4
The plates were vortexed and incubated at room temperature for 90 minutes at which time the binding reaction was stopped by filtering. The filters were washed and counted using the same procedure as in the total binding assay described above to give the non-specific binding value (NSB).
as §4, §5, §6, §7, §8

[4] = test system: D2 receptor; settings: background, marketed products; cited from earlier work
[5] = molecular target: D4 receptor; settings: background, marketed products; cited from earlier work

Sequence of human D2 receptor (short isoform) (P14416 with tags, fused parts or gaps DEL242-270): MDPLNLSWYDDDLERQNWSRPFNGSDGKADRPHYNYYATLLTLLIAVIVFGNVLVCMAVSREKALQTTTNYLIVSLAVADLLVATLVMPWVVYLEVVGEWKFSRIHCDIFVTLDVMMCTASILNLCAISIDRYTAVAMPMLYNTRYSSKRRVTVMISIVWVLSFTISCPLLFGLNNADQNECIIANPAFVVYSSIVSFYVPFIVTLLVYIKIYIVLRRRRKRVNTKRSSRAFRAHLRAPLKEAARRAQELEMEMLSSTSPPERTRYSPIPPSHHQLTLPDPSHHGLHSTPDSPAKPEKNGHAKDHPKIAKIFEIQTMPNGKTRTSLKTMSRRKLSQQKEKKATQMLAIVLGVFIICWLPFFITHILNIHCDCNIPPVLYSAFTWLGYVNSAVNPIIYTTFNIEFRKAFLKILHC

Row | SMILES | D2/D4 selectivity [1] | inhibition at 1 µM [2] [%] | inhibition at 10 µM [2] [%] | Ki [3] [nM] | preference for binding the D4 receptor relative to the D2 receptor [4] | Ki [5] [nM]
1 | CN1CCN(C2=Nc3cc(Cl)ccc3Oc3ccccc32)CC1 [isoloxapine] |  |  |  |  | about 10 fold | ~20
2 | N#Cc1ccc(CN2CCN(c3cccccc3=O)CC2)cc1 [2-[4-(4-cyanobenzyl)-1-piperazinyl]-2,4,6-cycloheptatriene-1-one] | 169 |  |  | 29.5 |  | 
3 | CCCCCCN1CCN(c2cccccc2=O)CC1 [2-(4-hexyl-1-piperazinyl)-2,4,6-cycloheptatriene-1-one] | 23 | 45 | 50 | 33.3 |  | 
4 | O=c1cccccc1N1CCN(Cc2cccc(C(F)(F)F)c2)CC1 [2-[4-(3-trifluoromethylbenzyl)-1-piperazinyl]-2,4,6-cycloheptatriene-1-one] | 28 |  |  | 21.5 |  | 
5 | O=c1c(-c2cccs2)ccccc1N1CCN(Cc2ccc3c(c2)OCO3)CC1 [2-(4-Piperonyl-1-piperazinyl)7-thien2-yl-2,4,6-cycloheptatriene-1-one] | 34 |  |  | 11.9 |  | 
6 | COc1cccc(CN2CCN(c3cccccc3=O)CC2)c1 [2-[4-(3-Methoxybenzyl)-1-piperazinyl]-2,4,6-cycloheptatriene-1-one] | 137 |  |  | 19.2 |  | 

The remaining compounds from weak to strong by Ki [3], led by results:

Row | D2/D4 selectivity [1] | inhibition at 1 µM [2] [%] | inhibition at 10 µM [2] [%] | Ki [3] [nM] | SMILES | preference for binding the D4 receptor relative to the D2 receptor [4] | Ki [5] [nM]
7 | 53 |  |  | 9.58 | O=c1cccccc1N1CCN(Cc2cccc(Br)c2)CC1 [2-[4-(3-bromobenzyl)-1-piperazinyl]-2,4,6-cycloheptatriene-1-one] |  | 
8 | 154 | 32 | 65 | 7.15 | O=c1cccccc1N1CCN(Cc2ccc3c(c2)OCO3)CC1 [2-(4-Piperonyl-1-piperazinyl)-2,4,6-cycloheptatriene-1-one] |  | 
9 | 1014 |  |  | 6.67 | O=c1cccccc1N1CCN(Cc2ccc([N+](=O)[O-])cc2)CC1 [2-[4-(4-nitrobenzyl)-1-piperazinyl]-2,4,6-cycloheptatriene-1-one] |  | 
10 | 598 |  |  | 4.22 | O=c1cccccc1N1CCN(Cc2ccc(C(F)(F)F)cc2)CC1 [2-[4-(4-trifluoromethylbenzyl)-1-piperazinyl]-2,4,6-cycloheptatriene-1-one] |  | 
11 | 321 |  |  | 2.24 | O=c1cccccc1N1CCN(Cc2ccc3ccccc3c2)CC1 |  | 
12 | 367 |  |  | 2.18 | O=c1cccccc1N1CCN(Cc2ccc(OC(F)(F)F)cc2)CC1 [2-[4-(4-trifluoromethoxybenzyl)-1-piperazinyl]-2,4,6-cycloheptatriene-1-one] |  | 
13 | 443 |  |  | 1.46 | Cc1ccc(CN2CCN(c3cccccc3=O)CC2)cc1 [2-[4-(4-methylbenzyl)-1-piperazinyl]-2,4,6-cycloheptatriene-1-one] |  | 
14 | 935 |  |  | 0.82 | O=c1cccccc1N1CCN(Cc2ccc(Br)cc2)CC1 [2-[4-(4-bromobenzyl)-1-piperazinyl]-2,4,6-cycloheptatriene-1-one] |  | 
15 | 104 |  |  | 0.226 | O=c1c(Br)ccccc1N1CCN(Cc2ccc3c(c2)OCO3)CC1 [7-bromo-2-(4-piperonyl-1-piperazinyl)-2,4,6-cycloheptatriene-1-one] |  | 
